From patent US20260015350A1, “AZAQUINAZOLINE PAN-KRAS INHIBITORS” (Mirati Therapeutics, Inc., priority 2022, published 2026)

Tests used:
[1] = system: KRas-mediated phosphorylation of ERK in H727 cells; assay: Inhibition of KRas-mediated phosphorylation of ERK (Cisbio HTRF pERK), H727 cells; type: cell-based; conditions: Homo sapiens, NCI-H727, H727 cells; HTRF pERK
Experimental: (§1) Inhibition of KRas Phosphorylation of ERK (HTRF) by Exemplary Compounds of Formula (I) Cisbio HTRF Advanced PERK Assay Catalog #64[…] […] Add 10 mL of media to stop trypsinizing. Pipette the cells into a conical bottom 50 mL centrifuge tube and centrifuge 5 min×1000 rpm. […] Re-suspend the cell pellet in media, take a cell count, and then adjust the cell density using fresh media. […] Seed 6,000 cells into cell culture plate with 50 μL media. […] Use Tecan to complete the compound addition. Compounds start from 10 uM top, 3-fold dilution, and 10 doses. The final DMSO concentration is 0.8%. Dispensed 0.2 uM Trametinib as Min control. […] Incubate cell plate for 3 hrs in the incubator. […] Dilute 1 volume of 4× lysis buffer with 3 volumes of deionized water. […] Keep lysis buffer on the ice. […] At the end of the compound treatment, flick-off the media. […] Add 35 μL of lysis buffer per well using a Multidrop Combi. Then place on a plate agitator shaking at 300 rpm at 4° C. for 40 mins. […] Make up the HTRF antibody buffer. For each assay plate, mix 50 μL of d2-conjugate antibody with 950 μL of detection buffer. Similarly, mix 50 μL of Cryptate antibody with 950 μL of detection buffer. Then mix the two diluted antibodies together. […] Dispense 3.4 μL the antibody buffer to wells of an empty assay plate. Seal the plate and centrifuge plate 30 sec×1000 rpm. […] At the end of the 4° C. lysis, centrifuge the lysate plates 3 mins×1500 rpm. […] Use the Bravo to transfer 13.6 μL of lysate from cell culture plate to assay plate. Then incubate assay plate for 2 hrs at room temperature. 8. At the end of incubation, read plate on the Envision after centrifuging plate 30 sec×1000 rpm.

[2] = system: KRas-mediated phosphorylation of ERK in AsPC-1 cells; assay: Inhibition of KRas-mediated phosphorylation of ERK (Cisbio HTRF pERK), AsPC-1 cells; type: cell-based; conditions: Homo sapiens, ASPC1, AsPC-1 cells; HTRF pERK
Experimental: as §1

KRas^G12V = target: T1, KRas^G12V (Homo sapiens, UniProt P01116, G12V); assay: KRas binding assay (TR-FRET tracer displacement), KRas G12V
T1 construct: Biotinylated KRas (corresponding to amino acids 1-169, produced at Accelegan Inc.); biotin (biotinylated); purchased Accelegan Inc

KRas^G12R = target: T2, KRas^G12R (Homo sapiens, UniProt P01116, G12R); assay: KRas binding assay (TR-FRET tracer displacement), KRas G12R
T2 construct: Biotinylated KRas (corresponding to amino acids 1-169, produced at Accelegan Inc.); biotin (biotinylated); purchased Accelegan Inc

KRas^G12D = target: T3, KRas^G12D (Homo sapiens, UniProt P01116, G12D); assay: KRas binding assay (TR-FRET tracer displacement), KRas G12D
T3 construct: Biotinylated KRas (corresponding to amino acids 1-169, produced at Accelegan Inc.); biotin (biotinylated); purchased Accelegan Inc
T3 sequence (P01116 1-169 isoform P01116-2 G12D): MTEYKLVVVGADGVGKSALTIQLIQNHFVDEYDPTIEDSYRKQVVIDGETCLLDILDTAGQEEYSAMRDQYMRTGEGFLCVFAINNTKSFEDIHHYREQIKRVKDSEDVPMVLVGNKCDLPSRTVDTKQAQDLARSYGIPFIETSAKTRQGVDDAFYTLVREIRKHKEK

T1 sequence (P01116 1-169 isoform P01116-2 G12V): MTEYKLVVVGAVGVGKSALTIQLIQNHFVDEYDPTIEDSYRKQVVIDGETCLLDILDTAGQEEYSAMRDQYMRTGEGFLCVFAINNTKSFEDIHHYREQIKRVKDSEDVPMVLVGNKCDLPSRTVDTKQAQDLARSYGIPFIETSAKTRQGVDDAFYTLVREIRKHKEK
T2 sequence (P01116 1-169 isoform P01116-2 G12R): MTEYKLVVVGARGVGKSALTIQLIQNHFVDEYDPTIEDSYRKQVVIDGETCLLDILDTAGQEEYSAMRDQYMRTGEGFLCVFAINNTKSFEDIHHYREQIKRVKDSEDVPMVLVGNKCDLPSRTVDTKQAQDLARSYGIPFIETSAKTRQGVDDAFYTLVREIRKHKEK

## CCc1c(F)ccc2cc(O)cc(-c3ncc4c(N5CCCn6nc(S(N)(=O)=O)cc6C5)nc(OC[C@@]56CCCN5C[C@H](F)C6)nc4c3F)c12 [Example 661, 5-(7-(8-ethyl-7-fluoro-3-hydroxynaphthalen-1-yl)-8-fluoro-2-(((2R,7aS)-2-fluorohexahydro-1H-pyrrolizin-7a-yl)methoxy)pyrido[4,3-d]pyrimidin-4-yl)-5,6,7,8-tetrahydro-4H-pyrazolo[1,5-a][1,4]diazepine-2-sulfonamide]
[1]
  IC50: > 10000 nM
[2]
  IC50: > 10000 nM
KRas^G12V
  IC50: 1740 nM
KRas^G12R
  IC50: 699 nM
KRas^G12D
  IC50: 680 nM

## CCc1c(F)ccc2cc(O)cc(-c3ncc4c(N5CCC(CC6CCCO6)C5)nc(OC[C@@]56CCCN5C[C@H](F)C6)nc4c3F)c12 (stereo partly drawn) [Example 597, 5-ethyl-6-fluoro-4-(8-fluoro-2-(((2R,7aS)-2-fluorotetrahydro-1H-pyrrolizin-7a(5H)-yl)methoxy)-4-(3-((tetrahydrofuran-2-yl)methyl)pyrrolidin-1-yl)pyrido[4,3-d]pyrimidin-7-yl)naphthalen-2-ol]
[1]
  IC50: 2360 nM
[2]
  IC50: 4800 nM
KRas^G12V
  IC50: 82 nM
KRas^G12R
  IC50: 194 nM
KRas^G12D
  IC50: 867 nM

## CCc1c(F)ccc2cc(O)cc(-c3ncc4c(NC56CCC(C#N)(CC5)CC6)nc(OC[C@@]56CCCN5C[C@H](F)C6)nc4c3F)c12 [Example 585, 4-((7-(8-ethyl-7-fluoro-3-hydroxynaphthalen-1-yl)-8-fluoro-2-(((2R,7aS)-2-fluorohexahydro-1H-pyrrolizin-7a-yl)methoxy)pyrido[4,3-d]pyrimidin-4-yl)amino)bicyclo[2.2.2]octane-1-carbonitrile]
[1]
  IC50: 2060 nM
[2]
  IC50: 4610 nM
KRas^G12V
  IC50: 103 nM
KRas^G12R
  IC50: 76 nM
KRas^G12D
  IC50: 434 nM

## CCc1c(F)ccc2cc(O)cc(-c3ncc4c(N5CCOCC6(CCS(=O)(=O)CC6)C5)nc(OC[C@@]56CCCN5C[C@H](F)C6)nc4c3F)c12 [Example 667, 11-(7-(8-ethyl-7-fluoro-3-hydroxynaphthalen-1-yl)-8-fluoro-2-(((2R,7aS)-2-fluorohexahydro-1H-pyrrolizin-7a-yl)methoxy)pyrido[4,3-d]pyrimidin-4-yl)-8-oxa-3-thia-11-azaspiro[5.6]dodecane 3,3-dioxide]
[1]
  IC50: 6050 nM
[2]
  IC50: 6150 nM
KRas^G12V
  IC50: 203 nM
KRas^G12R
  IC50: 323 nM
KRas^G12D
  IC50: 445 nM

## CCc1c(F)ccc2cc(O)cc(-c3ncc4c(N5CCCCCC(P(C)(C)=O)C5)nc(OC[C@@]56CCCN5C[C@H](F)C6)nc4c3F)c12 (stereo partly drawn) [Example 864, (1-(7-(8-ethyl-7-fluoro-3-hydroxynaphthalen-1-yl)-8-fluoro-2-(((2R,7aS)-2-fluorotetrahydro-1H-pyrrolizin-7a(5H)-yl)methoxy)pyrido[4,3-d]pyrimidin-4-yl)azocan-3-yl)dimethylphosphine oxide]
[1]
  IC50: > 10000 nM
[2]
  IC50: > 10000 nM
KRas^G12V
  IC50: 946 nM
KRas^G12R
  IC50: 1790 nM
KRas^G12D
  IC50: 2130 nM

## CCc1c(F)ccc2cc(O)cc(-c3ncc4c(NCc5cc(C(=O)N(C)C)nn5C[C@H]5C[C@H](O)C5)nc(OC[C@@]56CCCN5C[C@H](F)C6)nc4c3F)c12 [Example 686, 5-(((7-(8-ethyl-7-fluoro-3-hydroxynaphthalen-1-yl)-8-fluoro-2-(((2R,7aS)-2-fluorohexahydro-1H-pyrrolizin-7a-yl)methoxy)pyrido[4,3-d]pyrimidin-4-yl)amino)methyl)-1-((trans-3-hydroxycyclobutyl)methyl)-N,N-dimethyl-1H-pyrazole-3-carboxamide]
[1]
  IC50: 8840 nM
[2]
  IC50: > 10000 nM
KRas^G12V
  IC50: 6 nM
KRas^G12R
  IC50: 5 nM
KRas^G12D
  IC50: 21 nM
